Data set [1] can be described thus: Solubility (qualitative). The format is physicochemical.
A short description of data set [2]: Storage stability of chelators and nonradioactive Re complexes. The class given is physicochemical. As to conditions: for hydrolysis observed on storage: under dry conditions at RT for 3 months.
Data set [3] is described as follows: In vitro radiocomplex stability in PBS buffer with no challenger, L-cysteine or L-histidine. The format is physicochemical. As to conditions: 37 °C. As for the experimental part: Radiocomplex stability testing was carried out in PBS buffer (350–400 μL) with either no challenger or L-cysteine (50 μL, 10 mM) or L-histidine (50 μL, 10 mM) as the challenger. All stability tests also contained ascorbic acid (50 μL, 1 mg/mL in PBS, pH 7) as a radioprotectant. HPLC-purified radiocomplexes ([^99mTc]Tc, 50 μL, 3.7–5.6 MBq, 100–150 μCi; [^186Re]Re, 50 μL, 1.9–3.7 MBq, 50–100 μCi) were added to the stability testing solutions and incubated at 37 °C. Aliquots of each solution were taken at 1, 4, and 24 h, and the stability of the complex was determined by radio-HPLC (Methods 1 and 3) or radio-TLC (Developer 1). An additional stability time point of 48 h was taken for the [^186Re]Re complexes. The formation of colloidal [^99mTc]TcO2 or [^186Re]ReO2 was monitored at each time point by radio-TLC (Developers 1 and 2).

Data set [4] is described as follows: Radiocomplex stability in rat serum. The class given is in vitro ADME. As to conditions: 37 °C. As to the method: The radiocomplex stability was also tested in rat serum. HPLC-purified radiocomplexes ([^99mTc]Tc, 50 μL, 7.4–11.1 MBq, 200–300 μCi; [^186Re]Re, 50 μL, 3.0–3.7 MBq, 80–100 μCi) were added to solutions of rat serum (400 μL, Innovative-grade U.S. Origin Sprague–Dawley Rat Serum, Innovative Research, Novi, MI) and ascorbic acid (50 μL, 1 mg/mL in PBS, pH 7). The rat serum mixtures were incubated at 37 °C. Aliquots (100–300 μL) were taken at 1, 4, and 24 h for all radiocomplexes and also at 48 h for the [^186Re]Re complexes. The rat serum aliquots were added to a 4 times volume of acetonitrile to precipitate the rat serum proteins. The solutions were vortexed for 1 min and centrifuged for 10 min. The supernatant was carefully removed, and the pellet was washed with another portion of acetonitrile (100–500 μL). The solution was again vortexed and centrifuged, and the supernatant was removed. The activities in the combined supernatants (containing radiocomplex not bound to proteins) and the pellet (containing radiocomplex bound to proteins) were measured to determine the percentage of nonspecific protein binding for each radiocomplex. Finally, the solvent was removed from the supernatant under a stream of nitrogen, and the stability of the radiocomplexes was determined by radio-HPLC (Methods 1 and 3) after reconstitution in PBS (1 mM, pH 7.4). The formation of colloidal [^99mTc]TcO2 or [^186Re]ReO2 was also monitored at each time point by radio-TLC (Developers 1 and 2).

18 compounds from article PMC10732151, “1,4,7-Triazacyclononane-Based Chelators for the Complexation of [^186Re]Re- and [^99mTc]Tc-Tricarbonyl Cores” (Inorganic Chemistry, 2023) can be followed below.

For `O=C(CN1CCNCCNCC1)NCc1ccccc1` [Chelator 3, N-Benzyl-2-(1,4,7-triazonan-1-yl)acetamide], the “solubility (solvents in which soluble)” value in data set [1] was “soluble in water, methanol, and acetonitrile”.
In the case of `O=C(O)CN1CCN(CC(=O)O)CCN(CC(=O)NCc2ccccc2)CC1` [Chelator 4, TACN-benzylamide Acid], in data set [1], the “solubility (solvents in which soluble)” value is “soluble in water, methanol, and acetonitrile”. Also, in data set [2] (at RT in an aqueous solution, in words), the “time stable on storage” value is reported as “several months”.
As to `COC(=O)CN1CCN(CC(=O)NCc2ccccc2)CCN(CC(=O)OC)CC1` [Chelator 5, TACN-benzylamide Methyl Ester], the “solubility (solvents in which soluble)” value in data set [1] is “soluble in methanol and acetonitrile”. For the same compound, the “time stable on storage” value in data set [2] (stored in a methanol solution, afterwards ester hydrolysis observed) is on record as “up to 1 week”.
Take `CCOC(=O)CN1CCN(CC(=O)NCc2ccccc2)CCN(CC(=O)OCC)CC1` [Chelator 6, TACN-benzylamide Ethyl Ester]: in data set [1], the “solubility (solvents in which soluble)” value is “soluble in ethanol and acetonitrile”. Also, in data set [2] (stored in an ethanol solution), the “time stable on storage” value was “up to 1 week”.
In the case of `COC(=O)CN1CCN(CC(=O)O)CCN(CC(=O)NCc2ccccc2)CC1` [Chelator 7, TACN-benzylamide Acid Methyl Ester], the “solubility (solvents in which soluble)” value in data set [1] was “soluble in methanol, ethanol, and water”.
On the same count and under the same terms, then `CCOC(=O)CN1CCN(CC(=O)O)CCN(CC(=O)NCc2ccccc2)CC1` [Chelator 8, TACN-benzylamide Acid Ethyl Ester], with “soluble in ethanol and acetonitrile”.
In the case of `CCOC(=O)C[N+]12CC[N+]3(CC(=O)NCc4ccccc4)CC[N+](CC(=O)OCC)(CC1)[Re-2]32.[C-]#[O+].[C-]#[O+].[C-]#[O+]` (stereo not shown) [Re-6, fac-[Re(CO)3(TACN-benzylamideethyl ester)]^+], the “hydrolysis observed on storage” value in data set [2] was “no hydrolysis observed”.
For `COC(=O)CN1CCN(CC(=O)NCc2ccccc2)CCN(CC(=O)OC)CC1.O=[C]=[99Tc+](=[C]=O)=[C]=O` [[^99mTc]Tc-5], the “stability in PBS, L-cysteine, and L-histidine” value (“stability in PBS, L-cysteine” for short) was above 90% in data set [3] (through 4 h) and above 79% in data set [3] (through 24 h). The “stability in rat serum” value in data set [4] (24 h) came to 32 ± 10%; in data set [4] (at 1 h), 94 ± 1%.
For `CCOC(=O)CN1CCN(CC(=O)NCc2ccccc2)CCN(CC(=O)OCC)CC1.O=[C]=[99Tc+](=[C]=O)=[C]=O` [[^99mTc]Tc-6], the “stability in PBS, L-cysteine” value is given as above 90% in data set [3] (through 4 h) and above 79% in data set [3] (through 24 h). Further, in data set [4] (24 h), the “stability in rat serum” value is given as at most 2%.
In the case of `COC(=O)CN1CCN(CC(=O)O)CCN(CC(=O)NCc2ccccc2)CC1.O=[C]=[99Tc+](=[C]=O)=[C]=O` [[^99mTc]Tc-7], in data set [3] (through 24 h), the “stability in PBS, L-cysteine” value is on record as 100%. In addition, the “stability in rat serum” value in data set [4] (24 h) is reported as above 60%.
For the compound `CCOC(=O)CN1CCN(CC(=O)O)CCN(CC(=O)NCc2ccccc2)CC1.O=[C]=[99Tc+](=[C]=O)=[C]=O` [[^99mTc]Tc-8], the “stability in PBS, L-cysteine” value in data set [3] (through 24 h) was 100%. For the same compound, in data set [4] (24 h), the “stability in rat serum” value is recorded as above 60%.
On to `COC(=O)CN1CCN(CC(=O)NCc2ccccc2)CCN(CC(=O)OC)CC1.O=[C]=[186Re+](=[C]=O)=[C]=O` [[^186Re]Re-5], for which the “stability in PBS, L-cysteine” value in data set [3] (through 4 h) is given as above 95%; in data set [3] (through/after 48 h) it was above 76%. The “stability in rat serum” value in data set [4] (48 h) is recorded as 4 ± 1%; in data set [4] (at 1 h), 88 ± 1%.
As to `CCOC(=O)CN1CCN(CC(=O)NCc2ccccc2)CCN(CC(=O)OCC)CC1.O=[C]=[186Re+](=[C]=O)=[C]=O` [[^186Re]Re-6], the “stability in PBS, L-cysteine” value is reported as above 95% in data set [3] (through 4 h) and above 76% in data set [3] (through/after 48 h). The “stability in rat serum” value in data set [4] (48 h) is on record as at most 2%.
With `COC(=O)CN1CCN(CC(=O)O)CCN(CC(=O)NCc2ccccc2)CC1.O=[C]=[186Re+](=[C]=O)=[C]=O` [[^186Re]Re-7], the “stability in PBS, L-cysteine” value in data set [3] (through/after 48 h) is on record as above 94%. Also, the “stability in rat serum” value in data set [4] (48 h) was determined as 38%.
Regarding `CCOC(=O)CN1CCN(CC(=O)O)CCN(CC(=O)NCc2ccccc2)CC1.O=[C]=[186Re+](=[C]=O)=[C]=O` [[^186Re]Re-8], the “stability in PBS, L-cysteine” value in data set [3] (through/after 48 h) is listed as above 94%. Moreover, the “stability in rat serum” value in data set [4] (48 h) stood at 42%.
For the compound “fac-[Re(CO)3(TACN-benzylamide acid)]^+ [Re-4]”, in data set [1], the “solubility (solvents in which soluble)” value was “soluble in water and methanol”. In addition, in data set [2] (stored under dry conditions, in words), the “time stable on storage” value is recorded as “several months”.
Turning to “fac-[Re(CO)3(TACN-benzylamide methyl ester)]^+ [Re-5]”, the “hydrolysis observed on storage” value in data set [2] is on record as below 5%.
Take “fac-[Re(CO)3(TACN-benzylamide)]^+ [Re-3]”: the “solubility (solvents in which soluble)” value in data set [1] is reported as “soluble in water”. In addition, the “time stable on storage” value in data set [2] (stored under dry, dark conditions at RT) amounted to 1 month.
